Measured values from article PMC7615363 (2023).

How the values were obtained:
[1] = test system: T5R8/359 (RNA, aptamer) GGAUGAGCGACGCUGGAAGGAAGAAAAUGCAGAAAAAAAGAAAAAAAUGUCUGGGUCUGGCGACUGCUC; assay: isothermal titration calorimetry; settings: 100 mM NaCl, 5 mM MgCl2, 50 mM HEPES, pH 7.6, 25 °C
[2] = test system: T8R16/409 (RNA, aptamer) GCCUGCAAGUGCGACGAAUGGGAAAUAGCAAAAGAAAACAGAGACACCGACAUGUUAGAGACCACCGACGUG; assay: isothermal titration calorimetry; settings: 100 mM NaCl, 5 mM MgCl2, 50 mM HEPES, pH 7.6, 25 °C
[3] = RNA 6 μM, nucleotide 100–200 μM in syringe

Compound	Kd ([1]; one-site fit with stoichiometry constrained to 0.5)	binding [2, 3]	binding [1, 3]	Kd ([2]; one-site fit)
Nc1ncnc2c1ncn2[C@@H]1O[C@H](COP(=O)(O)OP(=O)(O)OP(=O)(O)O)[C@@H](O)[C@H]1O	~ 7 μM	no	–	–
Nc1nc2c(ncn2[C@@H]2O[C@H](COP(=O)(O)OP(=O)(O)OP(=O)(O)O)[C@@H](O)[C@H]2O)c(=O)[nH]1	–	–	no	~ 0.5 μM
